Assay results: ChEMBL document CHEMBL1137961, “Benzimidazolone p38 inhibitors” (Bioorg Med Chem Lett, 2004)

Target: Mitogen-activated protein kinase 14 (Homo sapiens, UniProt Q16539)
Assay: Inhibitory activity against mitogen activated protein (MAP) kinase p38 alpha.

Sequence of Mitogen-activated protein kinase 14 (Q16539 whole entry): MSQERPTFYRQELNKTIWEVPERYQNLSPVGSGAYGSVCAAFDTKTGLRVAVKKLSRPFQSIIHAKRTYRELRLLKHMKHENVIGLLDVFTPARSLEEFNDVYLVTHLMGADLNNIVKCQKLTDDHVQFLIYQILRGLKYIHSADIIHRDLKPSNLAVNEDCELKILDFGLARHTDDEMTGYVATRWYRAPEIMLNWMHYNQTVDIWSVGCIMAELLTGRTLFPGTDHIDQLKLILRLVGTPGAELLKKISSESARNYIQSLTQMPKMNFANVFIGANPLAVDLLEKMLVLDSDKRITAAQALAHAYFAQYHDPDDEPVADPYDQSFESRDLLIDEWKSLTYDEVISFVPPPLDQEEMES

Q: For `Cn1c(=O)n(C)c2cc(-c3[nH]c(-c4cccs4)nc3-c3ccccc3F)ccc21`, which IC50 is on record?
A: 0.37 µM

Q: Which IC50 does the source give for `CCc1ccc(-c2[nH]c(-c3cccs3)nc2-c2ccc3c(c2)n(C)c(=O)n3C)cc1` here?
A: 8 µM

Q: Which IC50 does the source give for `CCn1c(=O)n(CC)c2cc(-n3nnnc3-c3ccc(F)c(C)c3)ccc21` here?
A: > 1 µM

Q: How did the IC50 turn out when `Cn1c(=O)n(C)c2cc(-c3[nH]cnc3-c3ccc(F)cc3)ccc21` was run?
A: 0.14 µM

Q: For `CCn1c(=O)n(CC)c2cc(-c3cc(-c4cccnc4)[nH]c3-c3cccc(C)c3)ccc21`, which IC50 is on record?
A: > 1 µM

Q: For `Cc1cccc(-c2nc(-c3cccnc3)[nH]c2-c2ccc3c(c2)n(C)c(=O)n3C)c1`, which IC50 is on record?
A: 0.2 µM

Q: How did the IC50 turn out when `Cn1c(=O)n(C)c2cc(-c3[nH]c(-c4ccc([S+](C)[O-])cc4)nc3-c3ccc(F)cc3)ccc21` (stereo not given) was run?
A: 4 µM

Q: For `CCn1c(=O)n(CC)c2cc(-c3[nH]c(-c4cccnc4)nc3-c3cccc(C)c3)ccc21`, which IC50 is on record?
A: 0.07 µM

Q: `CCn1c(=O)n(CC)c2cc(-c3c[nH]nc3-c3ccccc3)ccc21` was tested. Which IC50 did it give?
A: 0.2 µM

Q: How did the IC50 turn out when `Cn1c(=O)n(C)c2cc(-c3c[nH]nc3-c3ccccc3)ccc21` was run?
A: 0.2 µM

Q: For `Cn1c(=O)n(C)c2cc(-c3[nH]c(-c4cccs4)nc3-c3cccc(OC(F)(F)F)c3)ccc21`, which IC50 is on record?
A: 15.8 µM

Q: Which IC50 does the source give for `Cc1cccc(-c2nc(C3CCNCC3)[nH]c2-c2ccc3c(c2)n(C)c(=O)n3C)c1` here?
A: 0.07 µM

Q: For `Cc1cccc(-c2nc[nH]c2-c2ccc3c(c2)n(C)c(=O)n3C)c1`, which IC50 is on record?
A: 0.1 µM

Q: With `CCn1c(=O)n(CC)c2cc(-c3[nH]cnc3-c3ccccc3)ccc21` as the molecule, how does the IC50 read?
A: 0.14 µM

Q: For `Cc1ccccc1-c1nc(-c2cccs2)[nH]c1-c1ccc2c(c1)n(C)c(=O)n2C`, which IC50 is on record?
A: 6.2 µM

Q: `CCn1c(=O)n(CC)c2cc(-c3c[nH]nc3-c3ccc(F)c(C)c3)ccc21` was tested. Which IC50 did it give?
A: 0.03 µM

Q: `CCn1c(=O)n(CC)c2cc(-c3n[nH]cc3-c3cccc(C)c3)ccc21` was tested. Which IC50 did it give?
A: 0.73 µM

Q: `CCn1c(=O)n(CC)c2cc(-c3c(-c4cccc(C)c4)nc(C4CCNCC4)n3C)ccc21` was tested. Which IC50 did it give?
A: 1.25 µM

Q: With `CCn1c(=O)n(CC)c2cc(-c3c[nH]nc3-c3cccc(C(F)(F)F)c3)ccc21` as the molecule, how does the IC50 read?
A: 0.06 µM

Q: How did the IC50 turn out when `Cn1c(=O)n(C)c2cc(-c3[nH]c(-c4cccs4)nc3-c3cccc(Cl)c3)ccc21` was run?
A: 0.38 µM

Q: `CCn1c(=O)n(CC)c2cc(-c3n[nH]cc3-c3ccccc3)ccc21` was tested. Which IC50 did it give?
A: 0.68 µM

Q: How did the IC50 turn out when `Cn1c(=O)n(C)c2cc(-c3[nH]c(-c4cccs4)nc3-c3ccccc3)ccc21` was run?
A: 0.26 µM

Q: Which IC50 does the source give for `CCn1c(=O)n(CC)c2cc(-c3ocnc3-c3cccc(C)c3)ccc21` here?
A: 0.8 µM

Q: With `Cc1cccc(-c2nc(-c3cccs3)[nH]c2-c2ccc3c(c2)n(C)c(=O)n3C)c1` as the molecule, how does the IC50 read?
A: 0.14 µM

Q: For `Cn1c(=O)n(C)c2cc(-c3[nH]c(-c4cccs4)nc3-c3cccc(C(F)(F)F)c3)ccc21`, which IC50 is on record?
A: 1.5 µM

Q: With `CCn1c(=O)n(CC)c2cc(-c3c(-c4ccc(F)cc4)ncn3C3CCNCC3)ccc21` as the molecule, how does the IC50 read?
A: 0.09 µM

Q: `Cc1cccc(-c2[nH]c3nc(N)ccc3c2-c2ccc3c(c2)n(C)c(=O)n3C)c1` was tested. Which IC50 did it give?
A: 0.26 µM

Q: Which IC50 does the source give for `Cn1c(=O)n(C)c2cc(-c3n[nH]cc3-c3ccccc3)ccc21` here?
A: 2.5 µM

Q: Which IC50 does the source give for `CCn1c(=O)n(CC)c2cc(-c3[nH]cnc3-c3cccc(C)c3)ccc21` here?
A: 0.05 µM

Q: `Cn1c(=O)n(C)c2cc(-c3[nH]c(-c4cccs4)nc3-c3ccccc3Cl)ccc21` was tested. Which IC50 did it give?
A: 0.54 µM

Q: How did the IC50 turn out when `CCn1c(=O)n(CC)c2cc(-c3c[nH]cn3)ccc21` was run?
A: > 1 µM

Q: Which IC50 does the source give for `Cc1ccc(-c2nc(-c3cccs3)[nH]c2-c2ccc3c(c2)n(C)c(=O)n3C)cc1` here?
A: 1.8 µM

Q: `CCn1c(=O)n(CC)c2cc(-c3cccnc3-c3cccc(C)c3)ccc21` was tested. Which IC50 did it give?
A: > 1 µM

Q: How did the IC50 turn out when `Cc1cccc(-n2cncc2-c2ccc3c(c2)n(C)c(=O)n3C)c1` was run?
A: 14.4 µM

Q: For `CC(C)c1cccc(-c2[nH]c(-c3cccs3)nc2-c2ccc3c(c2)n(C)c(=O)n3C)c1`, which IC50 is on record?
A: > 32 µM

Q: `CCc1cccc(-c2[nH]c(-c3cccs3)nc2-c2ccc3c(c2)n(C)c(=O)n3C)c1` was tested. Which IC50 did it give?
A: 0.5 µM

Q: `Cn1c(=O)n(C)c2cc(-c3[nH]c(-c4cccs4)nc3-c3cccc(F)c3)ccc21` was tested. Which IC50 did it give?
A: 0.39 µM

Q: With `Cc1cccc(-c2nncn2-c2ccc3c(c2)n(C)c(=O)n3C)c1` as the molecule, how does the IC50 read?
A: 12.5 µM

Q: Which IC50 does the source give for `CCn1c(=O)n(CC)c2cc(-c3[nH]cnc3-c3ccc(F)cc3)ccc21` here?
A: 0.1 µM

Q: For `CCn1c(=O)n(CC)c2cc(-c3c[nH]nc3-c3cccc(C)c3)ccc21`, which IC50 is on record?
A: 0.009 µM

Q: For `CCn1c(=O)n(CC)c2cc(-c3ccnn3-c3cccc(C)c3)ccc21`, which IC50 is on record?
A: 0.69 µM

Q: Which IC50 does the source give for `Cn1c(=O)n(C)c2cc(-c3[nH]c(-c4cccs4)nc3-c3ccc(F)cc3)ccc21` here?
A: 0.27 µM

Q: `CCn1c(=O)n(CC)c2cc(-c3nnnn3-c3ccc(F)c(C)c3)ccc21` was tested. Which IC50 did it give?
A: > 1 µM

Q: `Cn1c(=O)n(C)c2cc(-c3[nH]c(-c4cccs4)nc3-c3ccc(Cl)cc3)ccc21` was tested. Which IC50 did it give?
A: 0.68 µM

Q: Which IC50 does the source give for `Cn1c(=O)n(C)c2cc(-c3[nH]cnc3-c3ccccc3)ccc21` here?
A: 0.29 µM
